pIC50: −log10 of the molar value. Structures can show the parent of a compound that is named as a salt.
Columns and labels:
[1] = system: cardiac microtissues; assay: Cellular viability (ATP depletion, CellTiter-Glo) in cardiac microtissues; format: cell-based, human; settings: for pIC50: read-out: Cellular viability (ATP depletion) IC50
Protocol: (§1) Cellular ATP concentrations were assessed using the CellTiter-Glo® Luminescent Cell Viability Assay as per the manufacturer’s instructions (Promega); for cardiac microtissues 40 µl media was removed prior to the addition of 40 µl CellTiter-Glo® reagent. […] Data from the same treatment on minimum of 3 occasions were averaged to represent the mean ATP measurement.

[2] = system: cardiac microtissues; assay: ER integrity (ER-Tracker blue imaging) in cardiac microtissues; format: cell-based, human; settings: for pIC50: read-out: ER integrity IC50
Protocol: (§2) Cardiac microtissues were stained with fluorescent probes in cell culture media, 40 µl media was removed and 40 µl of 2x multiplexed dye was added back to the well for 30 minutes at 37 °C, 5% CO2. Fluorescent probes used were ER-Tracker blue (2 µM) to measure endoplasmic reticulum (ER) integrity and TMRE (500 nM) to measure mitochondrial membrane potential (ΔΨm). All microtissues were imaged on a Cell Voyager 7000 (YokogawaInc.) and images captured using a 20x objective (Olympus UPLSAPO 0.75 NA, 0.6 mm WD), with a 2 × 2 bin. Plates are imaged live, prior to use the stage temperature was set to 37 °C and CO2 level at 5%. […] Transmitted light images were acquired using a 100 W Halogen lamp as an illumination source. Images were captured over a 60 μm range in the Z-axis with a 5 μm interval between slices. Z-stack images were output as a maximal projection of multiple z-planes.
(§3) Maximum projection images were imported and analysed in the Columbus Platform (v2.7, Perkin Elmer Inc.).

[3] = total Cmax, therapeutically relevant maximum total plasma concentration; source not given; cited from earlier work
[4] = system: cardiac microtissues; assay: Mitochondrial membrane potential (ΔΨm, TMRE imaging) in cardiac microtissues; format: cell-based, human; settings: for pIC50: read-out: Mitochondrial membrane potential (ΔΨm) IC50
Protocol: as §2, §3

[5] = system: cardiac microtissues; assay: Therapeutic index (IC50 in cardiac microtissues divided by total Cmax); format: cell-based, human
[6] = system: hCF; assay: Mitochondrial membrane potential (ΔΨm) in 2D monoculture; settings: Homo sapiens, read-out: Mitochondrial membrane potential (ΔΨm) IC50
[7] = system: hCMEC; assay: Cellular viability (ATP depletion) in 2D monoculture; format: cell-based; settings: Homo sapiens
Protocol: (§4) For 2D monoculture, hiPS-CM, hCMEC and hCF were cultured as described above and seeded in CellCarrier-384 Ultra microplates (Perkin Elmer, 6057300) at 5000, 2500 and 1750 cells/well respectively.
as §1

[8] = system: hiPS-CM; assay: as above; format: cell-based; settings: Homo sapiens
Protocol: as §4, §1

[9] = system: hCF; assay: as above; settings: Homo sapiens, read-out: Cellular viability (ATP depletion) IC50
[10] = system: hCMEC; assay: Mitochondrial membrane potential (ΔΨm) in 2D monoculture; format: cell-based; settings: Homo sapiens
Protocol: as §4
(§5) Monoculture cells were stained with fluorescent probes diluted in cell culture media, 25 µl media was removed and 25 µl of 2x multiplexed dye was added back to the well for 15 minutes at 37 °C, 5% CO2.

[11] = system: hiPS-CM; assay: as above; format: cell-based; settings: Homo sapiens
Protocol: as §4, §5

[12] = system: hCF; assay: ER integrity in 2D monoculture; settings: Homo sapiens, read-out: ER integrity IC50
[13] = system: hCMEC; assay: ER integrity in 2D monoculture; format: cell-based; settings: Homo sapiens
Protocol: as §4, §5

[14] = system: hiPS-CM; assay: ER integrity in 2D monoculture; format: cell-based; settings: Homo sapiens
Protocol: as §4, §5

[15] = system: hESC-CMs; settings: read-out: reported IC50 value in hESC-CMs; cited from earlier work
[16] = system: H9c2 cells; set-up: method as in PMID 18664550; settings: read-out: reported IC50 value in H9c2 cells; cited from earlier work
[17] = system: cardiac microtissues; assay: Histopathology (H&E, IHC, IF) of treated cardiac microtissues; format: cell-based, human; settings: 24 hours; sunitinib 100 µM; doxorubicin 0.1 and 30 µM (Fig. 2)
Protocol: Microtissues were harvested from 384 well-plates and washed twice in 1x PBS (Sigma P7059) subsequent to fixation in 3.7% paraformaldehyde (PFA) (Sigma F1635) at 4 °C for one hour. The 3.7% PFA was then removed and replaced with two washes of 1x PBS. The PBS was removed and replaced with liquid HistoGel (Thermo Fisher HG-4000-012) and left on ice for 30 minutes to solidify. The HistoGel pellet was placed into a histological cassette and processed using an enclosed tissue processor overnight. The HistoGel was then embedded using paraffin wax.
The formalin fixed paraffin embedded (FFPE) blocks were then sectioned at each time point at three 50 µm step levels with 8 × serial sections per level at 3 µm. H&E staining was performed on microtissue sections using Mayer’s Haematoxylin using a standard automated protocol. Standard automated immunohistochemistry (IHC) and immunofluorescence (IF) protocols were used for primary antibody detection at different dilutions (Supplementary Table 3) on microtissue sections. Diaminobenzadine (DAB) (Roche Diagnostics 760–159) was used to visualise positive staining in single-plex staining and Alkaline Phosphatase Fast Red (Roche Diagnostics 760–160) with DAB were used in dual staining, with a haematoxylin counterstain. […] A minimum of 15 microtissues per time point/treatment were evaluated. […]

[18] = Homo sapiens, cardiac microtissues, 72 hours, geometric mean
[19] = cardiac microtissues, 72 hours, geometric mean
[20] = cardiac microtissues, mechanistic fingerprint

SMILES | pIC50 [2, 18] | pIC50 [4, 18] | pIC50 [1, 18] | Cmax [3] | other results
Nc1nc2c(ncn2COCCO)c(=O)[nH]1 [Acyclovir] | < 4.00 | < 4.00 | < 4.00 | 6660 nM | –
C[C@@H]1[C@H](O)[C@@H](C)/C=C/C=C/C=C/C=C/C=C/C=C/C=C/[C@H](O[C@@H]2O[C@H](C)[C@@H](O)[C@H](N)[C@@H]2O)C[C@@H]2O[C@](O)(C[C@@H](O)C[C@@H](O)[C@H](O)CC[C@@H](O)C[C@@H](O)CC(=O)O[C@H]1C)C[C@H](O)[C@H]2C(=O)O [Amphotericin B] | 5.45 | < 4.30 | 4.43 | 9000 nM | –
CC(C)C[C@H](NC(=O)[C@H](Cc1ccccc1)NC(=O)c1cnccn1)B(O)O [Bortezomib] | 4.04 | 5.79 | 6.46 | 290 nM | –
O=C1CC2(CCCC2)CC(=O)N1CCCCN1CCN(c2ncccn2)CC1 [Buspirone HCl] | < 4.00 | < 4.00 | 4.25 | 30 nM | –
COc1cc(N)c(Cl)cc1C(=O)NC1CCN(CCCOc2ccc(F)cc2)CC1OC (stereo not drawn) [Cisapride Hydrate] | – | – | – | 170 nM | pIC50 [1, 19]: 4.12; pIC50 [2, 19]: 4.48; pIC50 [4, 19]: < 4.00
CN1CCN(C2=Nc3cc(Cl)ccc3Nc3ccccc32)CC1 [Clozapine] | – | – | – | 470 nM | –
O=P1(N(CCCl)CCCl)NCCCO1 (stereo not drawn) [Cyclophosphamide] | – | – | – | 153000 nM | pIC50 ([1]; Homo sapiens, 72 h): 4.26; pIC50 ([2]; Homo sapiens, 72 h): 4.22; pIC50 ([4]; Homo sapiens, 72 h): 4.18
O=c1[nH]cc(F)c(=O)[nH]1 [Fluorouracil] | 4.22 | 4.95 | 4.56 | 4610 nM | –
CC(=O)[C@]1(O)Cc2c(O)c3c(c(O)c2[C@@H](O[C@H]2C[C@H](N)[C@H](O)[C@H](C)O2)C1)C(=O)c1ccccc1C3=O [Idarubicin HCl] | 5.78 | 6.01 | 7.52 | 120 nM | –
CC(C)NCC(O)c1ccc(O)c(O)c1 (stereo not drawn) [Isoproterenol HCl] | 4.11 | 4.23 | < 4.00 | 10 nM | –
CN(C)CCN(Cc1cccs1)c1ccccn1 [Methapyrilene] | – | – | – | 15300 nM | –
Nc1cc(N2CCCCC2)nc(N)[n+]1[O-] [Minoxidil] | < 4.30 | < 4.30 | < 4.30 | 14800 nM | –
O=C1c2c(O)ccc(O)c2C(=O)c2c(NCCNCCO)ccc(NCCNCCO)c21 [Mitoxantrone diHCl] | 5.96 | 6.01 | 6.54 | – | –
O=C1C[C@@H](c2ccc(O)cc2)Oc2cc(O)cc(O)c21 [Narigenin] | – | – | – | 15400 nM | pIC50 [1, 19]: 4.20; pIC50 [2, 19]: < 4.00; pIC50 [4, 19]: < 4.00
O=C(C1CCCCC1)N1CC(=O)N2CCc3ccccc3C2C1 (stereo not drawn) [Praziquantel] | 6.09 | < 4.00 | 4.99 | 640 nM | –
CCN(CC)CCNC(=O)c1c(C)[nH]c(/C=C2\C(=O)Nc3ccc(F)cc32)c1C [Sunitinib Malate] | 6.41 | 5.59 | 5.08 | 250 nM | pIC50 ([1]; Homo sapiens, cardiac microtissues, 24 hours): 4.33; pIC50 ([6]; 24 h): 4.75; pIC50 ([6]; 72 h): 4.94; pIC50 ([7]; 24 hours): 5.31; pIC50 ([7]; 72 hours): 6.10; pIC50 ([8]; 24 hours): 4.61; pIC50 ([8]; 72 hours): 4.57; Histopathological / morphological changes [17]: clear reduction in overall cellularity; pIC50 ([9]; 24 h): 4.78; pIC50 ([9]; 72 h): 5.40; pIC50 ([10]; 24 hours): 5.02; pIC50 ([10]; 72 hours): 5.53; pIC50 ([11]; 24 hours): 4.79; pIC50 ([11]; 72 hours): 4.79; pIC50 ([12]; 24 h): 5.18; pIC50 ([12]; 72 h): 6.43; pIC50 ([13]; 24 hours): 5.53; pIC50 ([13]; 72 hours): 4.90; pIC50 ([14]; 24 hours): 5.35; pIC50 ([14]; 72 hours): 5.58

The next lines start with results.

pIC50 [2, 18] | pIC50 [4, 18] | SMILES | pIC50 [1, 18] | Cmax [3] | other results
< 4.00 | < 4.00 | Cc1nc(Nc2ncc(C(=O)Nc3c(C)cccc3Cl)s2)cc(N2CCN(CCO)CC2)n1 [Dasatinib] | 4.57 | – | Therapeutic index (TI): lowest IC50 of ΔΨm, ER integrity or ATP depletion / total Cmax [5]: ≤ 100 times Cmax
< 4.52 | < 4.52 | C#Cc1cccc(Nc2ncnc3cc(OCCOC)c(OCCOC)cc23)c1 [Erlotinib] | 4.68 | 3000 nM | –
< 4.00 | < 4.00 | Cc1ccc(C)c(OCCCC(C)(C)C(=O)O)c1 [Gemfibrozil] | < 4.00 | 99900 nM | –
< 4.00 | < 4.00 | CC(C(=O)O)c1cccc(C(=O)c2ccccc2)c1 (stereo not drawn) [Ketoprofen] | 4.42 | – | –
< 4.00 | 5.55 | CS(=O)(=O)CCNCc1ccc(-c2ccc3ncnc(Nc4ccc(OCc5cccc(F)c5)c(Cl)c4)c3c2)o1 [Lapatinib] | 4.89 | 4180 nM | Cellular viability modulated at multiple of total Cmax [1, 20]: ≤ 10 times the total Cmax; pIC50 ([6]; 24 h): 4.37; pIC50 ([6]; 72 h): 4.54; ER integrity modulated at multiple of total Cmax [2, 20]: ≤ 100 times the total Cmax; pIC50 ([7]; 24 hours): 4.79; pIC50 ([7]; 72 hours): 5.51; pIC50 ([8]; 72 hours): < 4.00; pIC50 ([9]; 24 h): 4.67; pIC50 ([9]; 72 h): 4.96; ΔΨm modulated at multiple of total Cmax [4, 20]: ≤ 1 times the total Cmax; pIC50 ([10]; 24 hours): 5.26; pIC50 ([10]; 72 hours): 4.94; pIC50 ([11]; 24 hours): 4.50; pIC50 ([11]; 72 hours): 4.63; pIC50 ([12]; 24 h): 4.83; pIC50 ([12]; 72 h): 4.96; pIC50 ([13]; 24 hours): 4.57; pIC50 ([13]; 72 hours): 5.36; pIC50 ([14]; 24 hours): 4.63; pIC50 ([14]; 72 hours): 5.51
5.22 | < 4.30 | COC(=O)Nc1nc2ccc(C(=O)c3ccccc3)cc2[nH]1 [Mebendazole] | < 4.30 | 2030 nM | –
5.19 | 5.09 | CNC(=O)c1cc(Oc2ccc(NC(=O)Nc3ccc(Cl)c(C(F)(F)F)c3)cc2)ccn1 [Sorafenib Tosylate] | 5.06 | – | pIC50 [15]: 4.82; pIC50 [16]: 4.35
4.63 | < 4.00 | CC(C)(C)c1ccc(C(O)CCCN2CCC(C(O)(c3ccccc3)c3ccccc3)CC2)cc1 (stereo not drawn) [Terfenadine] | 4.88 | 130 nM | –

Source: article PMC6033897, “Characterization and Validation of a Human 3D Cardiac Microtissue for the Assessment of Changes in Cardiac Pathology” (Scientific Reports, 2018)
